{"source": "patent US20210338782A1", "about": "“STORAGE STABLE SOMATOSTATIN-DOPAMINE CHIMERIC COMPOUNDS AND SALT FORMS THEREOF” (Cydan II, Inc., priority 2019, published 2021)", "format_in_all_cases": "physicochemical", "key": {"[1]": {"test": "Time and temperature stability of lyophilized TBR-760 salts in sealed glass vials (visual appearance, HPLC)", "details": "for salt form degraded: sealed glass vials, HPLC, hydrochloride salt", "experimental": "Lyophilized TBR-760 salts prepared as described above were assessed for stability by visual appearance and HPLC following initial production of the salt and following incubation of the salt at 20° C., 40° C., and 60° C. for 2, 4, and 8 weeks in sealed, glass vials. Changes in visual appearance of the salt were noted by evaluating the color of the substance following each incubation condition. Purity of the salt following each incubation condition was evaluated by HPLC. The number and quantity of degradation products were determined according to the number of absorbance peaks that resulted at different retention times and the size of the peaks."}, "[2]": {"test": "Thermostability of alternative salt forms of lanreotide and TBR-760 (UPLC)", "details": "for thermostability in words: increasing temperature and humidity (25° C./60% RH, 40° C./75% RH, 60° C.) up to 4 weeks", "experimental": "Each TBR-760 salt was further evaluated for thermolytic stability over time by setting up three different exposure conditions (25° C. at 60% relative humidity (RH); 40° C. at 75% RH; or 60° C. with open and closed container systems (open dish/closed dish). Approximately 50 mg of each salt form was weighed in a nitrogen-flushed glove box for use in the studies. All samples were stored at −20° C. in a good laboratory practice (GLP) freezer both before and after exposure to the indicated conditions.\nThe stability of each salt form was assessed by monitoring the post-exposure drug peak purity and by evaluating the post-exposure visual appearance of the salt. The samples were removed from the exposure conditions and allowed to equilibrate to ambient conditions for 15-20 mins. An appropriate amount of each sample was weighed for analysis and dissolved in diluent (deionized water containing 0.1% TFA) to obtain a stock concentration of 1 mg/mL. The stock solution was then diluted to 0.125 mg/mL in an HPLC vial using diluent and the samples were run on a Waters Acquity UPLC system using the parameters shown in Table 4.\nWe conducted thermostability studies of lanreotide acetate substantially as described in Example 6. These experiments confirmed that lanreotide acetate is […] when exposed to increasing temperature and humidity conditions over time (FIG. 45). […] (FIG. 45). This degree of thermal and humidity instability is disfavored for a pharmaceutical agent, particularly one intended for patient self-administration at home.\nTo determine whether a thermostable salt form of TBR-760 could be manufactured, a salt exchange was performed as described in Example 1 to generate bromide and chloride salts of TBR-760. Lanreotide bromide and lanreotide chloride salts were also generated and assessed for thermostability to evaluate the effect of the salt form on compound stability and to compare stability of lanreotide and TBR-760 of each salt.\nUPLC assays performed as described in Example 6 were further used to determine the number of degradants—and thus the number of impurities—in each sample. Results showing the purity assessment of each sample following thermostability studies are shown in FIGS. 48A-48B (lanreotide and TBR-760 acetate salts), 49A-49B (lanreotide and TBR-760 bromide salts), and 50A-50B (lanreotide and TBR-760 chloride salts)."}, "[3]": {"test": "Thermogravimetric analysis (TGA) of TBR-760 salt forms", "details": "ramp 5.0° C. per minute from 25 to 400° C.; hydrochloride salt", "how_it_was_run": "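Each salt form heated from 25 to 400 °C at 5.0 °C per minute while sample weight was recorded, to assess thermal stability.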"}, "[4]": {"test": "Solid state (thermolytic) stability of TBR-760 salt forms, open container, UPLC peak purity and appearance", "how_it_was_run": "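About 50 mg of each salt form exposed in open containers at 25° C/60% RH, 40° C/75% RH or 60° C, then stored at −20° C. After 15–20 min equilibration, appearance was noted; samples were dissolved in 0.1% TFA water and diluted to 0.125 mg/mL for UPLC peak purity.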"}, "[5]": {"test": "Photostability of alternative salt forms of lanreotide and TBR-760", "details": "1.2 million lux hours visible light or 200 watt hours/square meter UV light, hydrochloride salt", "excerpt": "In order to evaluate the light sensitivity and stability of TBR-760 chimeric peptide salts, all five salt forms were exposed to ultraviolet (UV) and visible light according to International Council for Harmonisation of Technical Requirements for Pharmaceuticals for Human Use (ICH) guideline Q1B for photostability testing. In brief, a Caron 6540-1 photostability chamber unit with separate UV and light chambers was used for the studies. Visible light exposure was 1.2 million lux hours and UV exposure was 200 watt hours/square meter.\nPhotostability of lanreotide acetate, lanreotide bromide, lanreotide chloride, TBR-760 acetate, TBR-760 bromide and TBR760 chloride was tested according to the methods of Example 7. Four samples were prepared for each salt form: one control for each of the UV and visible light exposure conditions (controls isolated from light) and one sample for exposure to each of the UV and visible light conditions. For each sample, 2-5 mg of the salt was weighed into 3 mL clear serum vials and stoppered. Vials containing control samples were wrapped in aluminum foil.\nFollowing exposure to visible and UV light, all lanreotide and TBR-760 salts were analyzed by UPLC as described in Example 7."}, "[6]": {"test": "Photostability of TBR-760 salt forms (ICH Q1B, visible and UV light), appearance and UPLC purity", "details": "for degradation upon exposure to visible or UV light, in words: visible and UV light", "how_it_was_run": "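Salt forms in clear sealed vials were exposed per ICH Q1B to 1.2 million lux hours visible and 200 watt hours/square meter UV, alongside foil-wrapped amber dark controls; reference controls were held at −20° C. Samples were inspected visually for appearance, then analysed by UPLC for purity.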"}, "[7]": {"details": "all thermostability conditions, UPLC"}, "[8]": {"details": "25° C. at 60% RH, open container"}, "[9]": {"details": "40° C. at 75% RH, open container"}, "[10]": {"details": "60° C., open dish, hydrochloride salt"}, "[11]": {"details": "UPLC peak purity, 25° C. at 60% RH, open container, hydrochloride salt"}, "[12]": {"details": "UPLC peak purity, 40° C. at 75% RH, open container, hydrochloride salt"}, "[13]": {"details": "UPLC peak purity, 60° C., open dish, hydrochloride salt"}}, "note": "Structures can show the parent of a compound that is named as a salt.", "data": [{"molecule": "CCCN1C[C@H](CSCC(=O)NCCCC[C@@H](NC(=O)CSC[C@@H]2C[C@@H]3c4cccc5[nH]cc(c45)C[C@H]3N(CCC)C2)C(=O)N[C@H]2CSSC[C@@H](C(=O)N[C@H](C(N)=O)[C@@H](C)O)NC(=O)[C@H](CC)NC(=O)[C@H](CCCCN)NC(=O)[C@@H](Cc3c[nH]c4ccccc34)NC(=O)[C@H](Cc3ccc(O)cc3)NC2=O)C[C@@H]2c3cccc4[nH]cc(c34)C[C@H]21", "note": "[TBR-760 chloride, Dop2-D-Lys(Dop2)-cyclo[Cys-Tyr-D-Trp-Lys-Abu-Cys]-Thr-NH2 hydrochloride salt]", "values": [{"measurement": "change in visual appearance", "setting": "[1]; 8 weeks at 60° C.", "result": "no change in the visual appearance"}, {"measurement": "salt form degraded", "setting": "[1]; 60° C. for 4 weeks", "result": 0.5, "unit": "%"}, {"measurement": "salt form degraded", "setting": "[1]; 60° C. for 8 weeks", "result": "less than 1%"}, {"measurement": "compound degraded", "setting": "[2]; 4 weeks at 60° C. and ambient humidity, hydrochloride salt", "result": "less than 0.6%"}, {"measurement": "number of impurities compared with other TBR-760 salts", "setting": "[2]; [7]", "result": "fewer impurities"}, {"measurement": "percent purity compared with other TBR-760 salts", "setting": "[2]; [7]", "result": "higher percent purity"}, {"measurement": "thermostability in words", "setting": "[2]; listed as TBR-760 hydrochloride, hydrochloride salt", "result": "thermostable"}, {"measurement": "thermostability in words", "setting": "[2]; listed as chloride salt form of TBR-760, hydrochloride salt", "result": "stable"}, {"measurement": "TGA start of decomposition", "setting": "[3]", "result": "~245", "unit": "°C"}, {"measurement": "Appearance, T = 2 wk", "setting": "[4]; [8]", "result": "White"}, {"measurement": "Appearance, T = 4 wk", "setting": "[4]; [8]", "result": "White"}, {"measurement": "Appearance, T = 3 d", "setting": "[4]; [8]", "result": "White"}, {"measurement": "stability compared with the other salt forms", "setting": "[4]; 40° C. at 75% RH and 60° C., 2 and 4 weeks, hydrochloride salt", "result": "significantly more stable"}, {"measurement": "Appearance, T = 2 wk", "setting": "[4]; [9]", "result": "White"}, {"measurement": "Appearance, T = 4 wk", "setting": "[4]; 40° C. at 75% RH, open container, hydrochloride salt", "result": "White"}, {"measurement": "Appearance, T = 3 d", "setting": "[4]; [9]", "result": "White"}, {"measurement": "Appearance, T = 2 wk", "setting": "[4]; [10]", "result": "White"}, {"measurement": "Appearance, T = 4 wk", "setting": "[4]; [10]", "result": "White"}, {"measurement": "Appearance, T = 3 d", "setting": "[4]; 60° C., open dish", "result": "White"}, {"measurement": "Purity, T = 2 wk", "setting": "[4]; [11]", "result": 98.28}, {"measurement": "Purity, T = 4 wk", "setting": "[4]; [11]", "result": 98.04}, {"measurement": "Purity, T = 3 d", "setting": "[4]; [11]", "result": 98.44}, {"measurement": "Purity, T = 2 wk", "setting": "[4]; [12]", "result": 97.62}, {"measurement": "Purity, T = 4 wk", "setting": "[4]; [12]", "result": 97.78}, {"measurement": "Purity, T = 3 d", "setting": "[4]; [12]", "result": 98.36}, {"measurement": "Purity, T = 2 wk", "setting": "[4]; [13]", "result": 97.58}, {"measurement": "Purity, T = 4 wk", "setting": "[4]; [13]", "result": 97.17}, {"measurement": "Purity, T = 3 d", "setting": "[4]; [13]", "result": 98.45}, {"measurement": "Purity, Control", "setting": "[4]; UPLC peak purity, control, stored at -20° C., hydrochloride salt", "result": 98.31}, {"measurement": "Appearance, Control", "setting": "[4]; control, stored at -20° C.", "result": "White"}, {"measurement": "additional degradants in chromatogram versus control", "setting": "[4]; two weeks at 60° C., open dish, UPLC, hydrochloride salt", "result": "two"}, {"measurement": "visible appearance after exposure to visible and UV light", "setting": "[5]; versus control", "result": "did not visibly change"}, {"measurement": "photostability in words (UPLC purity)", "setting": "[5]", "result": "as photostable as TBR-760 acetate"}, {"measurement": "Purity, UV-exposed", "setting": "[6]; UPLC, UV 200 watt hours/square meter, clear sealed vial, hydrochloride salt", "result": 97.06}, {"measurement": "Purity, Control", "setting": "[6]; UPLC, control in sealed amber vial at -20° C., hydrochloride salt", "result": 98.31}, {"measurement": "Purity, Dark Ctrl-UV", "setting": "[6]; UPLC, dark control in UV chamber, hydrochloride salt", "result": 98.37}, {"measurement": "Purity, Dark Crtl-Light", "setting": "[6]; UPLC, dark control in visible light chamber, hydrochloride salt", "result": 98.33}, {"measurement": "Purity, Light-exposed", "setting": "[6]; UPLC, visible light 1.2 million lux hours, clear sealed vial, hydrochloride salt", "result": 96.41}, {"measurement": "stability following UV exposure, in words", "setting": "[6]; UV 200 watt hours/square meter", "result": "more stable following UV exposure than the acetate, mesylate, sulfate, or tosylate salts"}, {"measurement": "Appearance, UV-exposed", "setting": "[6]; UV 200 watt hours/square meter, clear sealed vial, listed as Chloride, hydrochloride salt", "result": "white"}, {"measurement": "Appearance, UV-exposed", "setting": "[6]; UV 200 watt hours/square meter, clear sealed vial, listed as chloride salt, hydrochloride salt", "result": "remained unchanged"}, {"measurement": "Appearance, Control", "setting": "[6]; control in sealed amber vial at -20° C.", "result": "white"}, {"measurement": "Appearance, Dark Ctrl-UV", "setting": "[6]; dark control in UV chamber, amber vial wrapped in aluminum foil", "result": "white"}, {"measurement": "Appearance, Dark Crtl-Light", "setting": "[6]; dark control in visible light chamber, amber vial wrapped in aluminum foil", "result": "white"}, {"measurement": "degradation upon exposure to visible or UV light, in words", "setting": "[6]; UPLC, hydrochloride salt", "result": "more resistant to degradation than TBR-760 acetate"}, {"measurement": "degradation upon exposure to visible or UV light, in words", "setting": "[6]; UPLC, listed as TBR-760 chloride salt, hydrochloride salt", "result": "more stable"}, {"measurement": "stability following light exposure, in words", "setting": "[6]; visible light 1.2 million lux hours", "result": "significantly more stable than the TBR-760 acetate salt"}, {"measurement": "Appearance, Light-exposed", "setting": "[6]; visible light 1.2 million lux hours, clear sealed vial, listed as Chloride, hydrochloride salt", "result": "white"}, {"measurement": "Appearance, Light-exposed", "setting": "[6]; visible light 1.2 million lux hours, clear sealed vial, listed as chloride, hydrochloride salt", "result": "no visible discoloration"}]}]}
